From PubChem BioAssay (NCI)
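Protocol summary: plate cells (96-well), add compound at 5 concentrations, incubate 48 h, interpolate endpoints linearly. TGI: concentration producing complete growth inhibition.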

Experiments:
Experiment in all cases: NCI tumour cell line growth inhibition, 48 h
NCI-H522 lung = tested on: NCI-H522 lung
OVCAR-4 ovarian = tested on: OVCAR-4 ovarian
DMS 114 small cell lung = tested on: DMS 114 small cell lung
RPMI-8226 leukemia = tested on: RPMI-8226 leukemia
OVCAR-5 ovarian = tested on: OVCAR-5 ovarian
HOP-92 NSCLC = tested on: HOP-92 NSCLC
TK-10 renal = tested on: TK-10 renal
HCT-116 colon = tested on: HCT-116 colon
SF-539 CNS = tested on: SF-539 CNS
NCI-H226 lung = tested on: NCI-H226 lung
RXF-631 renal = tested on: RXF-631 renal
SF-268 CNS = tested on: SF-268 CNS
COLO 205 colon = tested on: COLO 205 colon
RXF 393 renal = tested on: RXF 393 renal
SNB-19 CNS = tested on: SNB-19 CNS
CAKI-1 renal = tested on: CAKI-1 renal
M14 melanoma = tested on: M14 melanoma
MOLT-4 leukemia = tested on: MOLT-4 leukemia
CCRF-CEM leukemia = tested on: CCRF-CEM leukemia
HT29 colon = tested on: HT29 colon
M19-MEL melanoma = tested on: M19-MEL melanoma
LXFL 529 NSCLC = tested on: LXFL 529 NSCLC
IGROV1 ovarian = tested on: IGROV1 ovarian
U251 CNS = tested on: U251 CNS
SK-MEL-5 melanoma = tested on: SK-MEL-5 melanoma
UACC-62 melanoma = tested on: UACC-62 melanoma
SN12C renal = tested on: SN12C renal
HL-60(TB) leukemia = tested on: HL-60(TB) leukemia
SF-295 CNS = tested on: SF-295 CNS
KM12 colon = tested on: KM12 colon
SR leukemia = tested on: SR leukemia
UACC-257 melanoma = tested on: UACC-257 melanoma
OVCAR-3 ovarian = tested on: OVCAR-3 ovarian
OVCAR-8 ovarian = tested on: OVCAR-8 ovarian
SK-MEL-28 melanoma = tested on: SK-MEL-28 melanoma
LOX IMVI melanoma = tested on: LOX IMVI melanoma
K-562 leukemia = tested on: K-562 leukemia
A549 NSCLC = tested on: A549 NSCLC
SW-620 colon = tested on: SW-620 colon
ACHN renal = tested on: ACHN renal
HCT-15 colon = tested on: HCT-15 colon
NCI-H460 lung = tested on: NCI-H460 lung
KM20L2 colon = tested on: KM20L2 colon
NCI-H23 lung = tested on: NCI-H23 lung
SK-OV-3 ovarian = tested on: SK-OV-3 ovarian
HOP-62 NSCLC = tested on: HOP-62 NSCLC
HCC-2998 colon = tested on: HCC-2998 colon
MALME-3M melanoma = tested on: MALME-3M melanoma
786-0 renal = tested on: 786-0 renal
UO-31 renal = tested on: UO-31 renal
XF 498 CNS = tested on: XF 498 CNS
SNB-75 CNS = tested on: SNB-75 CNS
SNB-78 CNS = tested on: SNB-78 CNS
DMS 273 small cell lung = tested on: DMS 273 small cell lung
A498 renal = tested on: A498 renal
EKVX NSCLC = tested on: EKVX NSCLC
HOP-18 NSCLC = tested on: HOP-18 NSCLC
DLD-1 colon = tested on: DLD-1 colon

Measured: TGI

CCC(/C(=N/NC(=O)C[N+](C)(C)C)c1ccccc1)C1OC(=O)c2ccccc21 (centres undefined)
> 100 µM: NCI-H522 lung | OVCAR-4 ovarian | DMS 114 small cell lung | RPMI-8226 leukemia | OVCAR-5 ovarian | HOP-92 NSCLC | TK-10 renal | HCT-116 colon | SF-539 CNS | NCI-H226 lung | RXF-631 renal | SF-268 CNS | COLO 205 colon | RXF 393 renal | SNB-19 CNS | CAKI-1 renal | M14 melanoma | MOLT-4 leukemia | CCRF-CEM leukemia | HT29 colon | M19-MEL melanoma | LXFL 529 NSCLC | IGROV1 ovarian | U251 CNS | SK-MEL-5 melanoma | UACC-62 melanoma | SN12C renal | HL-60(TB) leukemia | SF-295 CNS | KM12 colon | SR leukemia | UACC-257 melanoma | OVCAR-3 ovarian | OVCAR-8 ovarian | SK-MEL-28 melanoma | LOX IMVI melanoma | K-562 leukemia | A549 NSCLC | SW-620 colon | ACHN renal | HCT-15 colon | NCI-H460 lung | KM20L2 colon | NCI-H23 lung | SK-OV-3 ovarian | HOP-62 NSCLC | HCC-2998 colon | MALME-3M melanoma | 786-0 renal | UO-31 renal | XF 498 CNS | SNB-75 CNS | SNB-78 CNS | DMS 273 small cell lung

CN1C(=O)CC(CC(=O)C2CCCCC2=O)CC1=O (centres undefined)
> 100 µM: A498 renal | NCI-H522 lung | OVCAR-4 ovarian | DMS 114 small cell lung | RPMI-8226 leukemia | OVCAR-5 ovarian | HOP-92 NSCLC | TK-10 renal | EKVX NSCLC | HCT-116 colon | SF-539 CNS | NCI-H226 lung | SF-268 CNS | COLO 205 colon | RXF 393 renal | SNB-19 CNS | CAKI-1 renal | M14 melanoma | MOLT-4 leukemia | CCRF-CEM leukemia | HT29 colon | M19-MEL melanoma | LXFL 529 NSCLC | IGROV1 ovarian | U251 CNS | UACC-62 melanoma | SN12C renal | HOP-18 NSCLC | HL-60(TB) leukemia | SF-295 CNS | KM12 colon | SR leukemia | UACC-257 melanoma | OVCAR-3 ovarian | OVCAR-8 ovarian | SK-MEL-28 melanoma | LOX IMVI melanoma | K-562 leukemia | A549 NSCLC | SW-620 colon | ACHN renal | NCI-H460 lung | KM20L2 colon | NCI-H23 lung | SK-OV-3 ovarian | HOP-62 NSCLC | HCC-2998 colon | MALME-3M melanoma | 786-0 renal | UO-31 renal | DLD-1 colon | XF 498 CNS | SNB-75 CNS | SNB-78 CNS | DMS 273 small cell lung
